Measured values reported in PubChem BioAssay AID1845216 (Molecular Pharmacology Branch, DTP, NCI, 2023).

Test system: SW 982 tumor spheroid viability
Assay: Anticancer human tumor SW 982 cell line growth inhibition;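 further: spheroids exposed to compound for 7 days before readout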
Details: spheroids with HUVEC and MSC; for IC50: curve of first compound; for viability, T/C: stronger effect = lower value
Description: Multicellular complex tumor spheroid response to DNA repair inhibitors in combination with DNA-damaging drugs
This study explores the anticancer activities of DNA-damaging drugs and inhibitors of DNA damage repair, both as single agents and in combinations. Complex tumor spheroids comprised of malignant cells, endothelial cells and mesenchymal stem cells served as an in vitro model for human solid tumors. This model system incorporates physiologically relevant features and patient-derived or established malignant cell lines with clinically relevant genetic alterations from many tumor types. Twenty-six patient-derived or established malignant cell lines were evaluated representing sarcoma, melanoma, small cell lung cancer (SCLC), non-small cell lung cancer (NSCLC), as well as bladder, ovarian and pancreatic cancers. The concentration ranges selected for each drug and investigational agent were based upon clinically achievable concentrations if the clinical Cmax of the agent was known.
Compounds. The drugs and compounds olaparib (NSC753686), talazoparib (NSC767125), berzosertib (NSC777718), elimusertib (NSC800525), nedisertib (NSC802822), VX-984 (NSC792969), AZD-1390 (NSC803789), temozolomide (NSC362856), topotecan (NSC609699), trabectedin (NSC813783), staurosporine (NSC755774), and gemcitabine (NSC613327) were obtained from the National Cancer Institute (NCI) Developmental Therapeutics Program Chemical Repository. The FDA-approved anticancer drug set is available from the Developmental Therapeutics Program at https://dtp.cancer.gov/organization/dscb/obtaining/available_plates.htm. […] The stock solutions were prepared in dimethyl sulfoxide (DMSO, Sigma-Aldrich, St. Louis, MO, cat. D2650) at 400-fold the tested concentration and stored at -70 degrees C. Prior to their use, the stock solutions were diluted in fresh medium and the final DMSO concentration in the assay was 0.25% (v/v). All drugs and investigational agents were tested over a range starting from a high concentration at or near the clinical Cmax and decreasing in half-log increments. If the clinical Cmax for an agent had not been determined, the highest concentration tested was 10 microM.
Cell Lines. The patient-derived cancer cell (PDC) lines: 156681-154-R-J1-PDC, 283228-195-R-J1-PDC, 287954-098-R-J1-PDC, 292921-168-R-J2-PDC, 349418-098-R-PDC, 425362-245-T-J1-PDC, 556581-035-R-J1-PDC, and BL0293-F563-PDC were received from the NCI Patient-Derived Models Repository (PDMR, https://pdmr.cancer.gov). The established cell lines HS-SY-2 (RRID:CVCL_8719), MPNST, and SYO-1 (RRID:CVCL_7146) were obtained from the Sloan Kettering Institute. The alveolar soft parts sarcoma cell line ASPS-1 (RRID:CVCL_S738) was established at the NCI and grown from internal seed stocks. The following established cell lines were purchased from the American Type Culture Collection (ATCC, Manassas, VA): G-401 (ATCC, cat. CRL-1441, RRID:CVCL_0270), SW982 (ATCC, cat. HTB-93, RRID:CVCL_1734), VA-ES-BJ (ATCC, cat. CRL-2138, RRID:CVCL_1785), NCI-H719 (ATCC, cat. CRL-5837, RRID:CVCL_1582), NCI-H196 (ATCC, cat. CRL-5823, RRID:CVCL_1509), NCI-H841 (ATCC, cat. CRL-5845, RRID:CVCL_1595), NCI-H1618 (ATCC, cat. CRL-5879, RRID:CVCL_1480), NCI-H1876 (ATCC, cat. CRL-5902, RRID:CVCL_1503), DMS 114 (ATCC, cat. CRL-2066; RRID:CVCL_1174), NCI-H211 (ATCC, cat. CRL-5824; RRID:CVCL_1529), and SW 1271 (ATCC, cat. CRL-2177, RRID:CVCL_1716). The small cell lung cancer cell line COR-L88 was purchased from Sigma-Aldrich (cat. 92031917-1VL, RRID:CVCL_1141). The non-small cell lung cancer cell lines NCI-H226 (RRID:CVCL_1544) and NCI-H322M (RRID:CVCL_1557) were established at the NCI and grown from internal seed stocks. Pooled donor human umbilical vein endothelial cells (HUVEC, Lonza, cat. CC-2519) and human mesenchymal stem cells (hMSC, Lonza, cat. PT-2501) were purchased from Lonza (Walkersville, MD).
Cell Culture. All cells were maintained in an incubator at 37 degrees C and 5% CO2 with 95% humidity. […]

In the case of `CNCc1ccc(-c2cc(-c3nc(-c4ccc(S(=O)(=O)C(C)C)cc4)cnc3N)on2)cc1` + CC[C@@]1(O)C(=O)OCc2c1cc1n(c2=O)Cc2cc3c(CN(C)C)c(O)ccc3nc2-1, the IC50 (second compound 0.003 µM) is reported as 207 nM, the IC50 (second compound 0.00949 µM) is reported as 207 nM and the IC50 (second compound 0.03 µM) is reported as 180 nM. The IC50 (second compound 0.0949 µM) was 134 nM, the IC50 (second compound 0.3 µM) was 48.6 nM and the viability, T/C (second compound 0.003 µM, first compound 0.00949 µM) was 96.2%. The viability, T/C (second compound 0.003 µM, first compound 0.03 µM) was 91%, the viability, T/C (second compound 0.003 µM, first compound 0.0949 µM) was 66.1% and the viability, T/C (second compound 0.003 µM, first compound 0.3 µM) was 36.4%. It also gave a viability, T/C (second compound 0.003 µM, first compound 0.949 µM) of 33.8%, a viability, T/C (second compound 0.003 µM, first compound 3 µM) of 11.2% and a viability, T/C (second compound 0.00949 µM, first compound 0.00949 µM) of 81.5%. It also gave a viability, T/C (second compound 0.00949 µM, first compound 0.03 µM) of 85.8%, a viability, T/C (second compound 0.00949 µM, first compound 0.0949 µM) of 69.5% and a viability, T/C (second compound 0.00949 µM, first compound 0.3 µM) of 37.8%. For the same compound, the viability, T/C (second compound 0.00949 µM, first compound 0.949 µM) was 28.6%, the viability, T/C (second compound 0.00949 µM, first compound 3 µM) was 12.7% and the viability, T/C (second compound 0.03 µM, first compound 0.00949 µM) was 80%. The viability, T/C (second compound 0.03 µM, first compound 0.03 µM) was 79.1%, the viability, T/C (second compound 0.03 µM, first compound 0.0949 µM) was 61% and the viability, T/C (second compound 0.03 µM, first compound 0.3 µM) was 37.7%. It also gave a viability, T/C (second compound 0.03 µM, first compound 0.949 µM) of 32.4%, a viability, T/C (second compound 0.03 µM, first compound 3 µM) of 17.5% and a viability, T/C (second compound 0.0949 µM, first compound 0.00949 µM) of 83.3%. For the same compound, the viability, T/C (second compound 0.0949 µM, first compound 0.03 µM) was 75.9%, the viability, T/C (second compound 0.0949 µM, first compound 0.0949 µM) was 57.2% and the viability, T/C (second compound 0.0949 µM, first compound 0.3 µM) was 31.8%. For the same compound, the viability, T/C (second compound 0.0949 µM, first compound 0.949 µM) was 25.1%, the viability, T/C (second compound 0.0949 µM, first compound 3 µM) was 12.4% and the viability, T/C (second compound 0.3 µM, first compound 0.00949 µM) was 53.1%. The viability, T/C (second compound 0.3 µM, first compound 0.03 µM) was 57.2%, the viability, T/C (second compound 0.3 µM, first compound 0.0949 µM) was 45.5% and the viability, T/C (second compound 0.3 µM, first compound 0.3 µM) was 23.8%. The viability, T/C (second compound 0.3 µM, first compound 0.949 µM) was 20.2% and the viability, T/C (second compound 0.3 µM, first compound 3 µM) was 6.34%.
